{"source": "patent US5008252A", "about": "“Process for inhibiting herpes simplex virus-specified thymidine kinase” (The University of North Carolina at Chapel Hill, priority 1987, dated 1991)", "key": {"[1]": {"target": "T1, human cytosolic dThd kinase (Homo sapiens, UniProt P04183)", "T1 construct": "cellular cytosolic dThd kinase used to determine the Ki values was isolated from KB6B cells; endogenous in cells; host or cells: KB6B cells", "T1 sequence (P04183 whole entry)": "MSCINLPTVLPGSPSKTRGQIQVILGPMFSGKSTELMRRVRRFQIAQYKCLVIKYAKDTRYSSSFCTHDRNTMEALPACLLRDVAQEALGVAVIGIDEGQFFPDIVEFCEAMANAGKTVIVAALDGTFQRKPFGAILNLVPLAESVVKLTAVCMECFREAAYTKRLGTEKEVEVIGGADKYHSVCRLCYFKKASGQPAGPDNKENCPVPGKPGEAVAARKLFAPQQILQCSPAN", "test": "dThd kinase assay in vitro", "assay_type": "biochemical", "details": "purified enzyme; concentrations as high as 150 μM; 100 μM [14C]dThd", "from_the_text": "(§1) Enzyme purification, enzyme assays, IC50 and Ki determinations. The cellular cytosolic dThd kinase used to determine the Ki values was isolated from KB6B cells. The HSV-1 and HSV-2dThd kinases were extracted from dThd kinase-deficient HeLa BU cells infected with HSV-1 (strain KOS) and HSV-2(strain 333), respectively. All of the dThd kinases were purified using affinity column chromatography procedures described by Lee, L. S. and Cheng, Y.-C. (J. Biol. Chem. 251:2600-2604 (1976)). The dThd kinase assay used was the same as that described by Cheng, Y.-C. & Ostrander, M. (J. Biol. Chem. 251:2605-2610 (1976)). Incubations were conducted at 37° C. for 60 min and the Ki and 50% […] concentration (IC50) values were determined as described by Cheng, Y.-C. and Prusoff, W. H. (Biochem. Pharmacol. 22:3099-3108 (1976))."}, "[2]": {"target": "T2, HSV-2 (333) dThd kinase (Human herpesvirus 2, UniProt P04407)", "T2 construct": "kinases were extracted from dThd kinase-deficient HeLa BU cells infected with HSV-1 (strain KOS) and HSV-2(strain 333); endogenous in cells; host or cells: HeLa BU cells (dThd kinase deficient) infected with HSV-2 (strain 333)", "test": "dThd kinase assay in vitro", "assay_type": "biochemical, HSV-2 (strain 333)", "from_the_text": "as §1"}, "[3]": {"target": "dThd kinase from HSV-1 (KOS)-infected HeLa BU cells (Human alphaherpesvirus 1 strain KOS, UniProt P17402)", "test": "Phosphate transfer assay (substrate test)", "assay_type": "biochemical, HSV-1 (strain KOS)", "details": "2 mM ATP"}, "[4]": {"target": "T3, host dTMP kinase (Homo sapiens, UniProt P23919)", "T3 construct": "endogenous in cells; host or cells: HSV-2 (333)-infected HeLa BU cells, extract", "T3 sequence (P23919 whole entry)": "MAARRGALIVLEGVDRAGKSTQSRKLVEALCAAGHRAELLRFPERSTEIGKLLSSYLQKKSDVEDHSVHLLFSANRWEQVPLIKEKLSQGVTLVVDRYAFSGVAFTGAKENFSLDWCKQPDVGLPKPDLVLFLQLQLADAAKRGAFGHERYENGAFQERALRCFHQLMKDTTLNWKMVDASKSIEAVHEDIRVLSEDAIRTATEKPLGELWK", "test": "dTMP (thymidylate) kinase assay, crude extracts of HSV-2 (333)-infected HeLa BU cells", "assay_type": "biochemical", "details": "25 μM dTMP substrate, read-out: IC50 of dTMP kinase (reflects host dTMP kinase activity)", "method": "The thymidylate kinase and synthase assays were performed according to known procedures (see, Cheng, Y.-C. & Prusoff, W. H. (1974) Anal. Biochem. 60:545-550; Roberts, D. (1966) Biochemistry 5:3546-3548; Dolnick, B. J. & Cheng, Y. C. (1977) J. Biol. Chem. 252:7697-7703). dThd phosphorylase activity was determined by monitoring conversion of [^14 C]dThd to [14 C] thymine using high performance liquid chromatography (HPLC). Briefly, after a 30 min incubation of enzyme extract with radiolabeled dThd at 37° C., the reaction was stopped by addition of 25% trichloroacetic acid. After neutralization and centrifugation, the supernatants were loaded on to an Alltech Lichrosorb RP-18 column, and the column was eluted at a rate of 1 ml/min with 5 mM KH2 PO4 (pH 3.5)--10% methanol. Fractions of 1 ml were collected and radioactivity associated with dThd and thymine (as previously determined by retention times of authentic markers measured by their absorbance at 265 nm) was measured by scintillation counting. For evaluation of whether 5'-Et-dThd could serve substrate for dThd phosphorylase, reactions were carried out as described as above, except that 5'-Et-dThd was used instead of [^14 C]dThd; metabolites were then analyzed by HPLC as described above."}, "[5]": {"tested_on": "virus DNA synthesis", "test": "Virus DNA synthesis, isopycnic centrifugation of 32PO4-labeled DNA", "assay_type": "cell-based", "details": "5'-Et-dThd by itself; 32PO4-labeled virus DNA separated from host DNA", "from_the_text": "By itself, 5'-Et-dThd had no effect on virus yield (Table II) and on virus DNA synthesis as determined from isopycnic centrifugation studies where ^32 PO4 -labeled virus DNA was separated from host DNA. Nucleoside analogs have been developed based on the \"selective alternate substrate\" strategy, and depend on viral dThd kinase for their antiviral activity. The effect of 5'-Et-dThd on the antiviral efficacy of five such analogs, ACV, 9-(1, 3-dihydroxy-2-propoxymethyl) guanine (DHPG), fluoroido-arabinosyl-cytosine (FIAC), BVDU and 5'-amino-dThd (5'-NH2 -dThd) has been examined. The effect of 5'-Et-dThd on the activity of the five agents was determined by the virus yield assay using HSV-1 (strain KOS)-infected HeLa BU cells. At 100 μM, 5'-Et-dThd reversed the antiviral activity of ACV (15 μM), DHPG (2 μM), FIAC (1 μM), BVDU (1 μM) and 5'-NH2 -dThd (500 μM)35-, 100-, 98-, 15- and 250-fold, respectively (Table II). […] The results further indicate that the use of 5'-Et-dThd in the prophylaxis/prevention of virus reactivation would require a sequential order when used with virus dThd kinase-dependent antiviral agents."}, "[6]": {"target": "HSV-1 B3 dThd kinase in infected HeLa BU cells (Human alphaherpesvirus 1 strain SC16, UniProt P06479)", "test": "Intracellular dThd kinase activity ([14C]dThd phosphorylation)", "assay_type": "cell-based, HSV-1 (strain B3)", "details": "intracellular [14C]dThd phosphorylation", "method": "(§2) Intracellular dThd kinase activity. HeLa S3 or HeLa BU cells (1.5×10^6 /ml) were mock infected or infected with HSV-1 or HSV-2at 3 PFU/cell and incubated at 37° C. for a 1 h adsorption period. The medium was then removed, and the cells were washed with growth medium and resuspended at a cell density of 5×10^5 cells/ml in RPMI 1640 medium supplemented with kanamycin (100 μg/ml) and 5% dialyzed fetal bovine serum. At 9 h post-HSV infection, [14C]dThd (0.16 μCi/ml; 1 μM dThd) and different amounts of 5'-Et-dThd were added to the medium depending on experimental conditions. At the end of the labeling period (1 h), the cells were pelleted by centrifugation, washed with phosphate-buffered-saline (PBS) and resuspended in a small volume of PBS. Aliquots were then pipetted directly onto DE81 discs which were immediately washed in 100% EtOH. The DE81 discs were washed two additional times in 100% EtOH, and then radioactivity associated with the discs was measured by scintillation counting in 5 ml of aqueous counting fluid. In this manner, total intracellular dThd kinase activity was determined from the sum of radioactive acid soluble dThd nucleotides plus the acid insoluble dTMP associated with DNA, both precipitated directly on the DE81 discs."}, "[7]": {"target": "T4, HSV-2 (333) dThd kinase in infected HeLa BU cells (Human herpesvirus 2, UniProt P04407)", "T4 construct": "kinases were extracted from dThd kinase-deficient HeLa BU cells infected with HSV-1 (strain KOS) and HSV-2(strain 333); endogenous in cells; host or cells: HeLa BU cells (dThd kinase deficient) infected with HSV-2 (strain 333)", "test": "Intracellular dThd kinase activity ([14C]dThd phosphorylation)", "assay_type": "cell-based, HSV-2 (strain 333)", "method": "as §2"}}, "note": "Values joined by “and” are separate entries in the source; they are usually repeats but may differ in a detail not shown here. Identical values can stand only once. “Also recorded” adds a separate entry of the source."}
{"substance": "5'-ethynylthymidine [5'-Et-dThd]", "values": [{"measurement": "effect on human cytosolic dThd kinase", "setting": "[1]", "value": "does not exhibit inhibitory activity; also recorded: no effect; also recorded: No demonstrable effects"}, {"measurement": "inhibition of dThd kinase activity", "setting": "[2]; 10 μM 5'-Et-dThd, purified enzyme, 100 μM [14C]dThd", "value": 25, "unit": "%"}, {"measurement": "Ki", "setting": "[2]; HSV-2 333, affinity column-purified dThd kinase, ± standard deviation", "value": 380, "unit": "nM"}, {"measurement": "IC50", "setting": "[2]; HSV-2 333, enzyme extracts of infected HeLa BU cells, 100 μM dThd", "value": 46, "unit": "µM"}, {"measurement": "type of inhibition (kinetic studies)", "setting": "[2]; with respect to dThd", "value": "competitive inhibitor"}, {"measurement": "substrate for virus dThd kinase (phosphorylation of the analogue)", "setting": "[3]", "value": "not phosphorylated; also recorded: did not serve as a substrate"}, {"measurement": "IC50", "setting": "[4]", "value": 60, "unit": "µM"}, {"measurement": "effect on virus DNA synthesis", "setting": "[5]", "value": "no effect"}, {"measurement": "IC50", "setting": "[6]", "value": "< 10 µM and 6 µM"}, {"measurement": "dThd phosphorylating activity, % of untreated control", "setting": "[7]; 25 μM, HSV-2-infected HeLa BU, 9 h post infection, 1 h labeling", "value": 80, "unit": "%"}, {"measurement": "inhibition of dThd kinase-mediated [14C]dThd phosphorylation", "setting": "[7]; 100 μM, HSV-2-infected HeLa BU cells, 9 h post infection", "value": 50, "unit": "%"}, {"measurement": "IC50", "setting": "[7]; HSV-2 333, intracellular [14C]dThd phosphorylation, HeLa BU cells", "value": 100, "unit": "µM"}]}
